According to patent publication US7186784B2, “Phosphorus-containing carboxylic acid derivatives process for preparations thereof and flame retardant” (NOF Corporation, priority 2001, dated 2007):

What was measured:
[1] = Dissolution on preparing the resin composition; format: physicochemical; conditions: 20.0 parts M-Acid with Epicote 828, CIC acid derivative and Nofcure-LC-1, mixed in a vial
From the text: An attempt was made to prepare a resin composition by mixing and agitating in a vial, 5.06 parts by weight of Epicote 828, 4.94 parts by weight of a derivative from CIC acid by n-propylvinyl ether, 20.0 parts by weight of unmodified M-Acid and 0.21 parts by weight of Nofcure-LC-1. However, the M-Acid was not dissolved, thereby forming non-homogeneous and opaque suspension.

[2] = Storage stability test in blend with epoxy resin YDPN 638; conditions: 1:1 by weight with epoxy resin YDPN 638, room temperature; for Stability Test: 30 days, viscosity increase observed visually
From the text: Then a visual observation was made about an increase in the viscosity thereof.

Compound | dissolution in resin composition [1] | Stability Test: time before hardening (figure in parentheses) [2] | Stability Test [2]
O=C(O)CC(CP1(=O)Oc2ccccc2-c2ccccc21)C(=O)O (stereo not shown) [M-Acid] | not dissolved | – | –
O=C(O)CC(CP(=O)(Oc1ccccc1)Oc1ccccc1)C(=O)O (stereo not shown) [Ref. Example. 7] | – | 5 min | Hardened
CCOP(=O)(CC(CC(=O)O)C(=O)O)OCC (stereo not shown) [DEHP-ItaA] | – | 5 min | Hardened
O=C(O)CCC(CC(=O)O)(C(=O)O)P(=O)(O)O (stereo not shown) [PBTC, 2-phosphonobutane-1,2,4-tricarboxylic acid] | – | 15 min | Hardened
